Consider two compounds from patent US11723907B2, “Anti-aging compounds” (THE CLEVELAND CLINIC FOUNDATION, priority 2017, dated 2023).

Each structure is given as a SMILES string.

Data set [1] deals with fibroblasts derived from Werner syndrome patient. Nature of the data set: RLS of Werner syndrome fibroblasts. It is filed as cell-based, human. The text has this:
(§1) FIGS. 1A-1I provide graphs and images showing a new high throughput method for simultaneous detection of senescence associated SAβG activity and ATP in culture of normal pre-aged cells identified two potent anti-aging scaffolds. (A). General schema of HTS. (B). […] (C). Structures and corresponding tautameric forms of lead compounds. (D) Evaluation of possible genotoxic effect of experimental drugs in modified Ames test. 4-Nitroquinoline 1-oxide (4NQO) was used as a positive control. […] The general schema of RLS measurement in different cell types. (F) VA and N2N1 considerably extend RLS of normal human fibroblasts (NHDF) and stromal cells isolated from human normal bone marrow. (G). […] (I). Upper panel: Morphological appearance of NHDF at late passages with or without treatment. Lower panel: Cells were also fixed in para-formaldehyde and stained to detect SAβG.

Another data set relates to NHDF. Nature of the data set: SAβG staining of NHDF at late passages. It is filed as cell-based, human.
Source text: as §1
The inventors developed a new high-throughput screening (HTS) method for identification of anti-aging drugs (FIG. 1). The novel method was specifically designed for simultaneous detection of β-galactosidase activity in cell lysate followed by ATP detection by standard luciferase based assay. […] Altogether, the procedure allowed a simultaneous quantifiable detection of senescence associated β-galactosidase (SAβG) activity and evaluation of ATP level as a sign of improved proliferative capacity or cytotoxicity. […]

The next data set relates to cancer cell lines. Nature of the data set: Treatment of cancer cell lines. In kind it is cell-based.
The subject of the next data set is normal fibroblasts. Nature of the data set: Telomere length in treated fibroblasts. It is filed as cell-based. The source says:
Based on results obtained on tissue cultured cells (increased RLS) and an increase in the numbers of HSC surrogate cells (LTC-IC or CFU), the inventors set their future goal to develop a novel pharmacological treatment for AA patients and potentially for other BMF. They have examined the most prominent features of cellular aging: telomere shortening, mitochondrial dysfunction or decline in respiratory capacity and shift in intracellular redox balance toward more oxidized environment. […] The only persistent effect of VA was considerable reduction in global protein disulfide bonds (up to 30%) detected by Elman's reagent or direct labelling of reduced sulfhydryl groups with biotin-switch assay (FIG. 3A). That brought the reductive hypothesis to the inventors' attention. The redox potential is controlled by sophisticated set of diverse enzymes and this system is fed from generation of NADPH by multiple hydrogenases (FIG. 3B). Among them, the glucose-6-phosphate dehydrogenase (G6P) is most important, because it controls the rate limiting step of pentose phosphate pathway. The other important dehydrogenases are isocytrate dehydrogenases (cytoplasmic and mitochondrial, IDH1/2) and 6-phosphogluconate dehydrogenase (6PG). The next anti-oxidant cellular protection layer is thioredoxin and glutathione systems (FIG. 3B). The first one is composed of thioredoxin reductase (TrxR) and thioredoxin. […]

In data set [2] the test system is fibroblasts derived from a patient diagnosed with Bloom syndrome. Nature of the data set: RLS of Bloom syndrome fibroblasts. It is filed as cell-based, human.
Source text: as §1

In data set [3] the test system is bone marrow cells from aplastic anemia patients. As to the kind of experiment: Colony assay, aplastic anemia bone marrow. It is filed as cell-based, human. The note with it: tissue culture derived from aplastic anemia patients. The source says: While performing a multidrug screen for the agents that could simultaneously decrease senescence and overcome proliferative block in pre-senescent mesenchymal cells, the inventors identified two promising lead compounds violuric acid (VA) and 1-naphthoquinone-2-monoxime (N2N1). […] In term of hematopoietic stem cells (HSC) these agents prolonged the availability of HSC in methylcellulose (replicative/serial re-plating) experiments, long-term culture initiating cell assays (LTC-IC) and increased the performance of HSC in a competitive repopulation assay, the CD45.1/2 model. Furthermore, the inventors observed colonies formation in methylcellulose colony assay, after application of these drugs to the mononucleocyte fraction of bone marrow isolated from the patients diagnosed with severe AA. […] These compounds belong to a family of redox catalysts with unique chemical structure that shares a combined electrophile-nucleophile potential, a feature that renders these molecules effective anti-aging treatment in various biological model systems.
FIGS. 2A-2G provide graphs and images showing N2N1 and VA support HSC/progenitors populations under pressure of differentiation and tissue culture stress in vitro and in vivo. General schema of CFU (A) and LTC-IC assays (B). […] Representative result of three NBM is shown. (D) The morphology of cells at the end of 1st part of LTC-IC assay is shown. […]

The test system of the next data set is fibroblasts. As to the kind of experiment: Gene expression analysis of fibroblasts (RNAseq). In kind it is cell-based. The note with it: RNAseq exome.

In the case of `O=C1/C(=N/O)C=Cc2ccccc21` [N2N1, 1-naphthoquinone-2-monoxime], the entries for the “response of RLS to treatment” value in data set [1] and in data set [2] were “did not respond” and “responded positively”, respectively. The “number of SAβG positive cells” value in the data set with NHDF is on record as “substantially decreased”. For the same compound, the toxicity / proliferation result in the data set with cancer cell lines is “partially toxic”. Moreover, in the data set with normal fibroblasts, the telomere length result is on record as “maintenance of telomere length was observed”. Moreover, in data set [3], the colonies formation result is on record as “promote colonies formation”. In the data set with fibroblasts, the “expression of stem cell markers” value is listed as “revealed the expression of some stem cell markers”.

For `O=C1NC(=O)C(=NO)C(=O)N1` [VA, 2,4,5,6(1H,3H)-pyrimidine-tetrone 5-oxime], the “response of RLS to treatment” value in data set [1] is reported as “did not respond”; in data set [2], “responded positively”. Moreover, the “number of SAβG positive cells” value with NHDF is “substantially decreased”. Besides, the toxicity / proliferation entry in the data set on cancer cell lines was “neither toxic nor pro-proliferative”. Further, in the data set with normal fibroblasts, the telomere length entry was “maintenance of telomere length was observed”. In data set [3], the colonies formation result is recorded as “promote colonies formation”. Also, the “expression of stem cell markers” value in the data set on fibroblasts is given as “revealed the expression of some stem cell markers”.
